The source of these data is publication PMC9146228, “Bioactivity of Novel Pyrazole-Thiazolines Scaffolds against Trypanosoma cruzi: Computational Approaches and 3D Spheroid Model on Drug Discovery for Chagas Disease” (Pharmaceutics, 2022).

Where two headings read alike, the source gives them in different places.

Data set [1] relates to T. cruzi (Dm28c-Luc) trypomastigotes. Nature of the data set: microbe, parasite or virus in culture. Format: cell-based, Trypanosoma cruzi. Particulars: for IC50 / IC90: Trypanosoma cruzi, 24 h, Dm28c-Luc, mean ± SD; for IC50: read-out: Trypanocidal Activity Trypomastigotes IC50; for IC90: read-out: Trypanocidal Activity Trypomastigotes IC90; for Trypomastigotes SI (CC50 of Vero cells/IC50): selectivity index vs Vero cells. As for the experimental part:
The screening assays were performed with T. cruzi clone Dm28c (TcI) genetically modified to express luciferase gene (Dm28c-Luc), kindly provided by Dr. Cristina Henriques. Trypomastigotes were isolated from T. cruzi-infected Vero cell monolayers (10:1 parasites/host cell ratio). On the 4th day post-infection (dpi), free trypomastigotes in the culture supernatant were harvested, and the number of parasites/mL was quantified in a Neubauer chamber.
The trypanocidal activity of the pyrazole-thiazoline derivatives was evaluated against trypomastigote and intracellular amastigote forms of T. cruzi (Dm28c-Luc). Tissue-derived trypomastigotes (1 × 10^6 parasites/well) were incubated with pyrazole-thiazoline derivatives and Bz in different concentrations (0.41–100 µM) for 24 h at 37 °C in a humidified atmosphere and 5% CO2. The parasite viability was determined by the addition of luciferin (300 µg/mL), followed by luminescence detection on the GloMax microplate reader (Promega Corporation, Madison, WI, USA).
(§1) After 72 h of treatment, luciferin (300 µg/mL) was added to the culture, and the viability of the parasites was assessed by reading the luminescent signal on the GloMax reader (Promega Corporation, Madison, WI, USA). Controls were also performed in non-toxic concentrations of DMSO (≤ 1%). The concentration that reduces the number of viable parasites by 50% (IC50) or 90% (IC90) was calculated by linear regression. The selectivity index (SI) was calculated as CC50/IC50 for each parasite form.

Data set [2] relates to T. cruzi (Dm28c-Luc) intracellular amastigotes. Nature of the data set: Trypanocidal activity against intracellular amastigotes in infected Vero cell monolayers. Format: cell-based, Trypanosoma cruzi. Conditions: for IC90: read-out: Trypanocidal Activity Intracellular Amastigotes IC90; for Intracellular Amastigotes SI (CC50 of Vero cells/IC50): selectivity index vs Vero cells. As for the experimental part:
The susceptibility of intracellular amastigotes to pyrazole-thiazoline derivatives (series 1 and 2) was evaluated using 24 h T. cruzi-infected Vero cell monolayers (10:1 parasite/host cell ratio). Then, the cultures were washed with PBS to remove non-internalized parasites, and 200 μL of fresh medium with a serial dilution of pyrazole-thiazoline derivatives and Bz (0.41–100 µM) was added for 72 h at 37 °C.
as §1

Data set [3] can be described thus: Cytotoxicity in vitro assay (CellTiter-Glo). Particulars: African green monkey, Vero cells, mean ± SD. The data set is classed as cell-based. As for the experimental part:
Vero cells, obtained from the Rio de Janeiro Cell Bank (BCRJ code 0245), were dissociated with trypsin–EDTA solution (0.025%), and maintained in RPMI 1640 medium supplemented with 10% fetal bovine serum (FBS) at 37 °C in a humidified atmosphere of 5% CO2.
The compound toxicity was evaluated in Vero cell cultures. Briefly, Vero cells were seeded in 96-well white culture plates at a density of 1.5 × 10^4 cells/well for 24 h at 37 °C and 5% CO2. Thereafter, the cell monolayers were washed with phosphate-buffered saline (PBS) and 200 μL of fresh medium with a serial dilution of the pyrazole-thiazoline derivatives and Bz (1.9–500 µM) added. The cell viability was determined by luminescent assay using the CellTiter-Glo Kit (Promega Corporation, Madison, WI, USA) based on the ATP level. After 72 h of treatment, 20 μL of CellTiter-Glo solution was added per well, and cultures were kept for 2 min under agitation. The luminescent signal was read on the GloMax reader (Promega Corporation, Madison, WI, USA). The concentration of compounds that reduced 50% of cell viability (CC50) was calculated by linear regression. At least three independent assays were performed in duplicate.

Where [4] appears, read: Trypanosoma cruzi, Vero, 72 h, Dm28c-Luc in Vero cells, 72 h, mean ± SD, read-out: Trypanocidal Activity Intracellular Amastigotes IC50.
[5] abbreviates: Trypanosoma cruzi, Vero, pIC50 = −log IC50, Dm28c-Luc clone, read-out: Intracellular Amastigotes pIC50 (converted).
Where [6] appears, read: Trypanosoma cruzi, Dm28c-Luc in Vero cells, 72 h, mean ± SD.
[7] abbreviates: Dm28c-Luc in Vero cells, 72 h, mean ± SD, read-out: Trypanocidal Activity Intracellular Amastigotes IC50.

Broadly, the IC90 is the concentration needed for an effect of 90%. A word on the CC50: it is the concentration at which the toxic effect on the cells reaches its halfway point. Lower therefore signals harm at low concentration. What is called melting point is the temperature of the solid-liquid transition. Consider `Nc1c(C2=NCCS2)cnn1-c1cccc(Cl)c1Cl` [Compound 1l, 2-(5-amino-1-(2,3-dichlorophenyl)-1H-pyrazol-4-yl)-4,5-dihydrothiazole], for which the melting point lay within 188 to 190 °C. In data set [1], the IC50 is above 100 µM, the IC90 was above 100 µM and the “Trypomastigotes SI (CC50 of Vero cells/IC50)” value (“Trypomastigotes SI” below) was below 5. Moreover, the IC50 in data set [2] (setting [4]) is 11.1 ± 2 µM. In data set [2] (setting [5]), the IC50 is 11.2 µM. For the same compound, the IC90 in data set [2] (setting [6]) is above 100 µM. Moreover, the “Intracellular Amastigotes SI (CC50 of Vero cells/IC50)” value (from here on “Intracellular Amastigotes SI”) in data set [2] was above 44.9. The same compound displayed a CC50 at 72 h in data set [3] above 500 µM.

On to `COc1ccc(-n2cc(C3=NCCS3)cn2)cc1` [Compound 2k, 2-(1-(4-methoxyphenyl)-1H-pyrazol-4-yl)-4,5-dihydrothiazole], for which the melting point is 114 to 116 °C. Also, in data set [1], the IC50 was determined as 3.1 ± 0.3 µM, the IC90 is 36.1 ± 2.6 µM and the “Trypomastigotes SI” value is 36.1. The IC50 in data set [2] (setting [4]) stood at 22.4 ± 2.8 µM. The IC50 in data set [2] (setting [5]) was 22.9 µM. Further, the IC90 in data set [2] (setting [6]) came to 53 ± 9.8 µM. For the same compound, the “Intracellular Amastigotes SI” value in data set [2] is 4.9. In addition, the CC50 at 72 h in data set [3] is 110 ± 9.4 µM.

As to `Clc1ccc(-n2cc(C3=NCCS3)cn2)cc1` [Compound 2f, 2-(1-(4-chlorophenyl)-1H-pyrazol-4-yl)-4,5-dihydrothiazole], the melting point was in the range of 130 to 133 °C. For the same compound, in data set [1], the IC50 was determined as 0.6 ± 0.3 µM, the IC90 was found to be 13.3 ± 2.3 µM and the “Trypomastigotes SI” value amounted to 143.6. In addition, the IC50 in data set [2] (setting [7]) came out at 7.6 ± 2.5 µM. In data set [2] (setting [4]), the IC50 was below 10 µM. In data set [2] (setting [5]), the IC50 is around 10 µM. Also, in data set [2] (setting [6]), the IC90 is 33.5 ± 4.4 µM. Further, the “Intracellular Amastigotes SI” value in data set [2] is listed as 12.0. Half-maximal cytotoxicity in data set [3] (CC50 at 72 h) was put at 91.7 ± 13.1 µM.

Regarding `Nc1c(C2=NCCS2)cnn1-c1ccc(F)cc1` [Compound 1g, 2-(5-amino-1-(4-fluorophenyl)-1H-pyrazol-4-yl)-4,5-dihydrothiazole], the melting point fell in the range of 244 to 246 °C. For the same compound, in data set [1], the IC50 is above 100 µM, the IC90 is above 100 µM and the “Trypomastigotes SI” value is given as below 5. The IC50 in data set [2] (setting [4]) worked out at 96.3 ± 2.7 µM. Moreover, the IC50 in data set [2] (setting [5]) was 97.7 µM. Further, the IC90 in data set [2] (setting [6]) was above 100 µM. For the same compound, the “Intracellular Amastigotes SI” value in data set [2] turned out to be 5.6. In addition, in data set [3], the CC50 at 72 h is 483 ± 16.6 µM.

Compound `Brc1cccc(-n2cc(C3=NCCS3)cn2)c1` [Compound 2j, 2-(1-(3-bromophenyl)-1H-pyrazol-4-yl)-4,5-dihydrothiazole] came in with a melting point of 104 to 106 °C. In addition, in data set [1], the IC50 stood at 9.1 ± 0.9 µM, the IC90 worked out at 48.2 ± 4.1 µM and the “Trypomastigotes SI” value is given as 7.11. The IC50 in data set [2] (setting [7]) turned out to be 8.1 ± 1.3 µM. In addition, in data set [2] (setting [4]), the IC50 was below 10 µM. Besides, in data set [2] (setting [5]), the IC50 is around 10 µM. Moreover, the IC90 in data set [2] (setting [6]) was 31.1 ± 3.1 µM. In addition, the “Intracellular Amastigotes SI” value in data set [2] was 7.9. The compound further came in with a CC50 at 72 h in data set [3] of 64.5 ± 7.3 µM.

`Nc1c(C2=NCCS2)cnn1-c1ccc(Br)cc1` [Compound 1i, 2-(5-amino-1-(4-bromophenyl)-1H-pyrazol-4-yl)-4,5-dihydrothiazole] showed a melting point of 282 to 284 °C. In data set [1], the IC50 was 49.3 ± 4.7 µM, the IC90 is above 100 µM and the “Trypomastigotes SI” value was above 10.1. For the same compound, in data set [2] (setting [4]), the IC50 is above 100 µM. Further, the IC50 in data set [2] (setting [5]) was above 100 µM. Moreover, in data set [2] (setting [6]), the 90% effect concentration (IC90) was above 100 µM. Further, the “Intracellular Amastigotes SI” value in data set [2] is recorded as below 5. In data set [3], this compound yielded a CC50 at 72 h above 500 µM.

For `Clc1cccc(-n2cc(C3=NCCS3)cn2)c1` [Compound 2b, 2-(1-(3-chlorophenyl)-1H-pyrazol-4-yl)-4,5-dihydrothiazole], the melting point was in the range of 88 to 90 °C. In addition, in data set [1], the IC50 is 0.8 ± 0.3 µM, the IC90 turned out to be 8.8 ± 1.3 µM and the “Trypomastigotes SI” value came out at 100.2. Moreover, the IC50 in data set [2] (setting [7]) stood at 8.3 ± 1.9 µM. For the same compound, in data set [2] (setting [4]), the IC50 is below 10 µM. Besides, the IC50 in data set [2] (setting [5]) was around 10 µM. In addition, the IC90 in data set [2] (setting [6]) was 31.9 ± 1.3 µM. For the same compound, the “Intracellular Amastigotes SI” value in data set [2] was determined as 9.4. In addition, in data set [3], the CC50 at 72 h was found to be 78.3 ± 7.7 µM.
